For two molecules, IC50 results are on record in ChEMBL document CHEMBL1147594, “Evaluation of loxoprofen and its alcohol metabolites for potency and selectivity of inhibition of cyclooxygenase-2” (Bioorg Med Chem Lett, 2004).

Each structure is given as a SMILES string.

What is called IC50 is the concentration at which inhibition is half-maximal.

Assay [1] concerns the target T1, Prostaglandin G/H synthase 1 (Homo sapiens, UniProt P23219). The assay is described as follows: Inhibitory activity against recombinant human prostaglandin G/H synthase 1.
In assay [2] the target is T1, Prostaglandin G/H synthase 1.
Description: Inhibitory potency against Prostaglandin G/H synthase 1 in human whole blood assay
Assay [3] has as its target T2, Prostaglandin G/H synthase 2 (Homo sapiens, UniProt P35354).
T2 sequence (P35354 whole entry): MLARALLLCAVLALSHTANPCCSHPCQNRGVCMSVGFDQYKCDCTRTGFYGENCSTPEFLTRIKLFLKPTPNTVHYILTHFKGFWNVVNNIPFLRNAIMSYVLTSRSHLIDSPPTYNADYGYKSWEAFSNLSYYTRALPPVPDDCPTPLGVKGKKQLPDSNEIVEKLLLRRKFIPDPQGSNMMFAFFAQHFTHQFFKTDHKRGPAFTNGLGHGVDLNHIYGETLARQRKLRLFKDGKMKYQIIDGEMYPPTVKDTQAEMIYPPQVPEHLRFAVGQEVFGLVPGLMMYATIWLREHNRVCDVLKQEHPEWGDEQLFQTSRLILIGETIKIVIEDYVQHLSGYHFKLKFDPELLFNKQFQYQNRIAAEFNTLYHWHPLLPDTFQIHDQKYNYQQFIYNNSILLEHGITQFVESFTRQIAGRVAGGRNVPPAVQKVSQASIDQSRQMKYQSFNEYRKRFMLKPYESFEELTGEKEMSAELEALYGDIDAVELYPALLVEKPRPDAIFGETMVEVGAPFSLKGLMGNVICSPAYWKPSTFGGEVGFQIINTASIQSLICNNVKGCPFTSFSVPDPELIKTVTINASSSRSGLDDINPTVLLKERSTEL
Description: Inhibitory activity against recombinant human Prostaglandin G/H synthase 2

Assay [4] concerns the target T2, Prostaglandin G/H synthase 2. The source holds these as a separate data set.
Description: Inhibitory potency against cyclooxygenase-2 in human whole blood assay

T1 sequence (P23219 whole entry): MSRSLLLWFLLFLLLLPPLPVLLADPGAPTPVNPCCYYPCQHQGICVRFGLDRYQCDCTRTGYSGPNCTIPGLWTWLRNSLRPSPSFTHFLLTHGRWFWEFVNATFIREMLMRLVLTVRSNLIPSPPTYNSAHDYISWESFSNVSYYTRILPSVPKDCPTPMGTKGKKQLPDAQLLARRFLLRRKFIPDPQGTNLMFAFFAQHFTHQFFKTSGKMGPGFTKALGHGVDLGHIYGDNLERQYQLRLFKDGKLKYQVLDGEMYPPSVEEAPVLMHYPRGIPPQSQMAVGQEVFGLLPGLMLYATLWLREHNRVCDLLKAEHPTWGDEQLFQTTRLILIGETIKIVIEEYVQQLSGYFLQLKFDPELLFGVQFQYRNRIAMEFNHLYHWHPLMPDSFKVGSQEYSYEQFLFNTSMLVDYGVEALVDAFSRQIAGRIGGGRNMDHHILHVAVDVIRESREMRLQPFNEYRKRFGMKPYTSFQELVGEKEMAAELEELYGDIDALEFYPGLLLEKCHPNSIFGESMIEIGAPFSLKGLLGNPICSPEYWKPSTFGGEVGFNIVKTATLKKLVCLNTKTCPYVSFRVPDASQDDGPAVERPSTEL

Turning to `CC(C(=O)O)c1ccc(CC2CCCC2=O)cc1` (stereo not drawn) [LOXOPROFEN], the IC50 in assay [1] was over 100 µM; in assay [2], 6.5 µM; in assay [3] it was over 100000 nM; in assay [4], 13.5 µM.

`CS(=O)(=O)c1ccc(C2=C(c3ccc(F)c(F)c3)C(=O)OC2)cc1`: the IC50 is over 100 µM in assay [1], 15.3 µM in assay [2], 230 nM in assay [3] and 0.48 µM in assay [4].
